# Test system: 22Rv1-Enz^R
# Experiment: 22Rv1-Enz^R cell proliferation assay
# Assay type: cell-based
# Details: human prostate cancer cell line 22Rv1-Enz^R; 6-day culture, cell media changed every 24 hours; half maximal growth inhibition constant; read-out: 22Rv1-Enz^R proliferation assay GIC50
# Description: The human prostate cancer cell line, 22Rv1 has been reported to express a high level of AR-V7. According to one procedure, 22Rv1 is seeded at 50,000 cells/well on a 24-well plate in quadruplicate and treated with test compounds in concentrations ranging up to 20 μM for four days. Standard culture media is RPMI-1640 supplemented with 10% fetal bovine serum. The test compound initially is dissolved in DMSO at 50 mM. This stock solution is then diluted as needed for the indicated concentrations. At the end of the four-day period, cells are harvested using 1% trypsin and counted using an automated cell counter.
# Selected compounds may be tested in the human prostate cancer cell line, 22Rv1-Enz^R as described in Geun Taek Lee et al., Molecular Cancer Therapeutics, 20:490-9 (2021). These procedures are similar to that described in Experimental Example 1, above, except that the assay conditions are a 6-day culture with cell media changed every 24 hours.
# In the following Table (half maximal growth inhibition constant, GIC50): (*)-GIC50 2-10 μM; (++)-GIC50 1.0-2.0 μM; (+++)-GIC50<1.0 μM.
row,SMILES,IC50
1,"O=C(COc1ccc(C2CCC(=O)NC2=O)cc1)NCCCCCCCCNC(=O)COc1c(-c2csc(N3CCOCC3)n2)ccc(F)c1F (stereo not drawn) [Example 1, 2-(2,3-Difluoro-6-(2-morpholinothiazol-4-yl)phenoxy)-N-(8-(2-(4-(2,6-dioxopiperidin-3-yl)phenoxy)acetamido)octyl)acetamide]",< 1000 nM
2,"O=C1CCC(c2ccc(OCC(=O)N3CCN(CCOCCOc4c(-c5csc(N6CCOCC6)n5)ccc(F)c4F)CC3)cc2)C(=O)N1 (stereo not drawn) [Example 2, 3-(4-(2-(4-(2-(2-(2,3-Difluoro-6-(2-morpholinothiazol-4-yl)phenoxy)ethoxy)ethyl)piperazin-1-yl)-2-oxoethoxy)phenyl)piperidine-2,6-dione]",1000 to 2000 nM
3,"O=C(COc1ccc(C2CCC(=O)NC2=O)cc1)NCCOCCOCCOCCOc1c(-c2csc(N3CCOCC3)n2)ccc(F)c1F (stereo not drawn) [Example 3, N-(2-(2-(2-(2-(2,3-Difluoro-6-(2-morpholinothiazol-4-yl)phenoxy)ethoxy)ethoxy)ethoxy)ethyl)-2-(4-(2,6-dioxopiperidin-3-yl)phenoxy)acetamide]",2000 to 10000 nM
4,"O=C(CCCCCCCCOc1c(-c2csc(N3CCOCC3)n2)ccc(F)c1F)NCCCCC(=O)Nc1ccc(C2CCC(=O)NC2=O)cc1 (stereo not drawn) [Example 4, 9-(2,3-difluoro-6-(2-morpholinothiazol-4-yl)phenoxy)-N-(5-((4-(2,6-dioxopiperidin-3-yl)phenyl)amino)-5-oxopentyl)nonanamide]",< 1000 nM
5,"O=C(CCCCCCCCOc1cccc(-c2csc(N3CCOCC3)n2)c1)NCCCCC(=O)Nc1ccc(C2CCC(=O)NC2=O)cc1 (stereo not drawn) [Example 6, N-(5-((4-(2,6-dioxopiperidin-3-yl)phenyl)amino)-5-oxopentyl)-9-(3-(2morpholinothiazol-4-yl)phenoxy)nonanamide]",2000 to 10000 nM

# Next, values leading:
row,IC50,SMILES
1,1000 to 2000 nM,"O=C(CCCCCCCCOc1ccc(-c2csc(N3CCOCC3)n2)cc1)NCCCCC(=O)Nc1ccc(C2CCC(=O)NC2=O)cc1 (stereo not drawn) [Example 7, N-(5-((4-(2,6-Dioxopiperidin-3-yl)phenyl)amino)-5-oxopentyl)-9-(4-(2morpholinothiazol-4-yl)phenoxy)nonanamide]"
2,2000 to 10000 nM,"O=C1CCC(c2ccc(OCCOCCOCCn3cc(CCOc4c(-c5csc(N6CCOCC6)n5)ccc(F)c4F)nn3)cc2)C(=O)N1 (stereo not drawn) [Example 10, 3-(4-(2-(2-(2-(4-(2-(2,3-difluoro-6-(2-morpholinothiazol-4-yl)phenoxy)ethyl)-1H-1,2,3-triazol-1-yl)ethoxy)ethoxy)ethoxy)phenyl)piperidine-2,6-dione]"
3,1000 to 2000 nM,"O=C1CCC(c2ccc(OCCOCCOCCOCCn3cc(CCOc4c(-c5csc(N6CCOCC6)n5)ccc(F)c4F)nn3)cc2)C(=O)N1 (stereo not drawn) [Example 11, 3-(4-(2-(2-(2-(2-(4-(2-(2,3-difluoro-6-(2-morpholinothiazol-4-yl)phenoxy)ethyl)-1H-1,2,3-triazol-1-yl)ethoxy)ethoxy)ethoxy)ethoxy)phenyl)piperidine-2,6-dione]"
4,2000 to 10000 nM,"O=C1CCC(c2ccc(NC(=O)CCCCCCCCOc3c(-c4csc(N5CCOCC5)n4)ccc(F)c3F)cc2)C(=O)N1 (stereo not drawn) [Example 12, 9-(2,3-difluoro-6-(2-morpholinothiazol-4-yl)phenoxy)-N-(4-(2,6-dioxopiperidin-3-yl)phenyl)nonanamide]"
5,1000 to 2000 nM,"O=C(CCCCCCCCOc1c(-c2csc(N3CCOCC3)n2)ccc(F)c1F)NCCCCCCC(=O)Nc1ccc(C2CCC(=O)NC2=O)cc1 (stereo not drawn) [Example 13, 9-(2,3-difluoro-6-(2-morpholinothiazol-4-yl)phenoxy)-N-(7-((4-(2,6-dioxopiperidin-3-yl)phenyl)amino)-7-oxoheptyl)nonanamide]"
6,1000 to 2000 nM,"O=C(CCCCCCCCOc1c(-c2csc(N3CCOCC3)n2)ccc(F)c1F)NCCOCCOCC(=O)Nc1ccc(C2CCC(=O)NC2=O)cc1 (stereo not drawn) [Example 14, 9-(2,3-difluoro-6-(2-morpholinothiazol-4-yl)phenoxy)-N-(2-(2-(2-((4-(2,6-dioxopiperidin-3-yl)phenyl)amino)-2-oxoethoxy)ethoxy)ethyl)nonanamide]"
7,2000 to 10000 nM,"O=C(CCCCCCCCOc1c(-c2csc(N3CCOCC3)n2)ccc(F)c1F)NCCCCNC(=O)c1ccc(N2CCC(=O)NC2=O)cc1 [Example 15, N-(4-(9-(2,3-difluoro-6-(2-morpholinothiazol-4-yl)phenoxy)nonanamido)butyl)-4-(2,4-dioxotetrahydropyrimidin-1(2H)-yl)benzamide]"
